Test results from US20240174693A1, “SOMATOSTATIN RECEPTOR SUBTYPE 4 (SSTR4) AGONISTS AND THEIR APPLICATIONS” (Humanwell Pharmaceutical US, priority 2022, published 2024).

Tests used:
[1] = molecular target: T1, CYP2D6 (Homo sapiens, UniProt P10635); assay: CYP inhibition in HLM, CYP2D6; assay type: in vitro ADME; settings: read-out: CYP inhibition (IC50 um) 2D6
T1 construct: from tissue; host or cells: liver microsomes (HLM)
Method: (§1) 0.1 M potassium phosphate buffer (K-buffer), pH 7.4 was preheated. K-buffer was prepared by mixing 9.5 mL Stock A into 40.5 mL Stock B. The total volume was brought to 500 mL with Milli-Q water. The buffer was titrated with KOH or H3PO4 to pH 7.4. Stock A (1 M monobasic potassium phosphate) was prepared by adding 136.5 g of monobasic potassium phosphate into 1 L of Milli-Q water. Stock B (1 M dibasic potassium phosphate) was prepared by adding 174.2 g of dibasic potassium phosphate in 1 L of Milli-Q water.
(§2) Serial dilution for test compound and reference inhibitors (400×) was prepared in a 96-well plate. 8 μL of 10 mM test compounds was transferred to 12 μL of ACN. Inhibitor spiking solution was prepared for CYP1A2, CYP2C9 and CYP2D6 in cocktail by adding 12 μL of 1 mM α-Naphthoflavon, 10 μL of 40 mM Sulfaphenazole, 10 μL of 10 mM Quinidine, and 8 μL of DMSO. Individual inhibitor spiking solution for CYP3A4 and CYP2C19 was prepared by adding 8 μL of DMSO stock to 12 μL of ACN. 1:3 serial dilutions were performed in DMSO:ACN mixture (v/v: 40:60).
(§3) NADPH cofactor was prepared by dissolving 66.7 mg NADPH in 10 mL 0.1 M K-buffer, pH7.4. 4×substrate (2 mL for each isoform) was prepared. HLM was added were required on ice. 0.2 mg/mL HLM solution was prepared using 10 μL of 20 mg/mL to 990 μL of 0.1 M K-buffer on ice. 400 μL of 0.2 mg/mL HLM were added to the assay wells and then 2 μL of 400×test compound set were added into the designated wells on ice. 200 μL of 0.2 mg/mL HLM was added to the assay wells and followed by 1 μL of serially diluted reference inhibtor solution into the designated wells on ice. The following solutions were added in duplicated in a 96-well plate on ice: 30 μL of 2×test compound and reference compound in 0.2 mg/mL HLM solution and 15 μL of 4×substrate solution. The 96-well assay plate and NADPH solution were pre-incubated at 37° C. for 5 minutes. 15 μL of pre-warmed 8 mM NADPH solution was added to into the assay plates to initiate the reaction. The assay plate was incubated at 37° C. 5 mins, 10 mins, and 45 mins. […]

[2] = molecular target: T2, CYP2C19 (Homo sapiens, UniProt P33261); assay: CYP inhibition in HLM, CYP2C19; assay type: in vitro ADME; settings: read-out: CYP inhibition (IC50 um) 2C19
T2 construct: from tissue; host or cells: liver microsomes (HLM)
T2 sequence (P33261 whole entry): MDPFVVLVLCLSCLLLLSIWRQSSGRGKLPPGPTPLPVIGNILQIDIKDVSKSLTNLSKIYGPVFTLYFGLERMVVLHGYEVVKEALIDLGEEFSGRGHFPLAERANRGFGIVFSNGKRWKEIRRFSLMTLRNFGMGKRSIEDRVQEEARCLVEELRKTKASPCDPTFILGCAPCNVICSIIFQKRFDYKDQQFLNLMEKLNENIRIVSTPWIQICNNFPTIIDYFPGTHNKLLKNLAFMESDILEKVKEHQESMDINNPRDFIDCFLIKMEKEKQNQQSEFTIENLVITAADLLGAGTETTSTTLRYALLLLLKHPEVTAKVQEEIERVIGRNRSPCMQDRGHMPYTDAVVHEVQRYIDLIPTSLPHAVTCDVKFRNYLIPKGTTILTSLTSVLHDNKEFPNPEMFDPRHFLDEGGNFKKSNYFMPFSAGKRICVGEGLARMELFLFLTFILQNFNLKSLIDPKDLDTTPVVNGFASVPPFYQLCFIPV
Method: as §1, §2, §3

[3] = in vitro; settings: rat, hepatocytes
Method: Vials with hepatocytes were removed from a liquid nitrogen storage unit and immediately placed in a 37±1° C. shaking water bath for 2 min±15 sec. The hepatocytes were poured into 50 mL of hepatocytes thawing medium, mixed gently, and centrifuged at 500 rpm for 3 minutes. After centrifugation, the supernatant was carefully aspirated without disturbing the pellet. 10× the volume of pre-warmed KHB buffer (Krebs-Henseleit buffer, Sigma Cat #K3753-10X1L) with 5.6 g/L HEPES was used to resuspend the cell pellet. The pellet mixture was centrifuged at 500 rpm for 3 minutes, aspirated, and the supernatant discarded without disturbing the cell pellet. The cell viability and yield were determined. The hepatocytes were counted, and the cell suspensions were diluted to the appropriate cell density. The viable cell density was 2×10^6 cells/mL. The hepatocyte solution was placed on ice until it was used.
Two dosing solutions of prewarmed KHB (1% DMSO) were prepared. 200 μM spiking solution was prepared by adding 20 μL of substrates stock solution (10 mM) into 980 μL of DMSO. Two dosing solutions were prepared by adding 10 μL of 200 μM spiking solution into 990 μL of KHB (2 μM after dilution). The dosing solution was centrifuged at 5594 g for 15 min (Thermo Multifuge×3R). 50 μL of pre-warmed 2×dosing solution was added to the wells designated for the different time points. […] After the addition of the hepatocytes, the timer was started. The assay was placed in an incubator at 37° C. 100 μL of ACN containing IS was added to the wells designed for 0 min, the wells were mixed gently, then 50 μL of pre-warmed hepatocytes solution (2×10^6 cells/mL) was added. The wells were sealed. […] Next, the wells were sealed. After quenching, the plates were shaken on a vibrator (IKA, MTS 2/4) for 10 min at 600 rpm. The plate was sonicated for 2 min and centrifuged at 5594 g for 15 min (Thermo Multifuge×3R). 50 μL of the supernatant was transferred from each well into a 96-well sample plate containing 50 μL of ultra pure water (Millipore, ZMQS50F01) for LC/MS analysis.

[4] = Chemical stability in buffer; assay type: physicochemical; settings: PBS(Ph 7.4) 10 um, 37° C.; read-out: Chemical Stability T½
Method: 1 mM test compound spiking solution (spiking solution A) was prepared by adding 10 μL of 10 mM a test compound stock solution to 90 μL of DMSO. 396 μL of buffer were added into tubes designated for different time points. The samples were pre-warmed at 37° C. for 10 minutes. 4 μL of spiking solution A was added into the wells containing 396 μL of buffer that were designated as 0 min, 15 min, 45 min, or 60 min. The timer was started after the addition of the spiking solution. At each time point, 1200 μL of acetonitrile (ACN) containing an internal standard was added to the tubes. The samples were centrifuged at 10,000 rpm for 5 minutes and 100 μL of the supernatant was removed and analyzed by for LC-MS/MS analysis.

[5] = molecular target: T3, SSTR4 (Homo sapiens, UniProt P31391); assay: FLIPR assay for agonists, HEK293/Gα15/SSTR4 cells; assay type: cell-based; settings: read-out: SSTR4 Agonist Activity in FLIPR Assay EC50
T3 construct: host or cells: HEK293/Gα15/SSTR4
T3 sequence (P31391 whole entry): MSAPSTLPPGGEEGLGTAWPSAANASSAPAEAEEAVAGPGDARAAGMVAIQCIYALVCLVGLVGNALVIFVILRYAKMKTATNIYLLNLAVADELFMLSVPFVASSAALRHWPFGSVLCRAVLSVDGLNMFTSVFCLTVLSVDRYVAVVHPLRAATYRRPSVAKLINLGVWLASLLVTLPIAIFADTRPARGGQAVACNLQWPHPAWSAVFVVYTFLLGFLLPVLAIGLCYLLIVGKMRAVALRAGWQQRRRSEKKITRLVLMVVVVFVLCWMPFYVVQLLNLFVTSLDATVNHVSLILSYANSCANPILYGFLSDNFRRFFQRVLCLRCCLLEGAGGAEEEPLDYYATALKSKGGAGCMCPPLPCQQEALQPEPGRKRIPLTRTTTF
Method: The study was carried out at HD Biosciences (Shanghai, China) according to the following steps.
Step 1: Test compounds were diluted to a 400×stock solution in DMSO in a 384-well plate.
Step 2: 1 μL of the compound solution was transferred from Step 1 to 79 μL of assay buffer, creating a 5×working solution in the 384-well plate using the Bravo method.
Step 3: HEK293/Gα15/SSTR1-5 cells were cultured in DMEM medium (10% FBS).
Step 4: When cells reached 80% confluence, the cells were separated using 0.25% trypsin-EDTA.
Step 5: The cell density was measured and the cells diluted to 1×10^6/mL using DMEM (10% FBS).
Step 6: 30 μL of cells were dispensed into each well of a Matrigel-coated 384-well plate (Corning 3764#) using a multi-channel pipette (30,000 cells per well) and cultured for 20-24 hours at 37° C. and 5% CO2.
Step 7: 10 μL of dye was added to each well in the cell plate prepared in Step 6.
Step 8: The dye and cells were incubated in the dark at 37° C. and 5% CO2 for 1 hour.
Step 9: After 1 hour, the FLIPR program was loaded, the pipette tips placed cell plate and compound plate (from Step 2) into the machine, and the run button was pressed. The program added 10 μL to 40 μL to the cell plate. FLIPR was used to read the plate at room temperature according to the specified settings and the data was saved.

[6] = molecular target: hERG potassium channel (Homo sapiens, UniProt Q12809); assay: in vitro; settings: hERG Current Inhibition Rate (%) Mean
Chain of hERG potassium channel (Q12809 whole entry): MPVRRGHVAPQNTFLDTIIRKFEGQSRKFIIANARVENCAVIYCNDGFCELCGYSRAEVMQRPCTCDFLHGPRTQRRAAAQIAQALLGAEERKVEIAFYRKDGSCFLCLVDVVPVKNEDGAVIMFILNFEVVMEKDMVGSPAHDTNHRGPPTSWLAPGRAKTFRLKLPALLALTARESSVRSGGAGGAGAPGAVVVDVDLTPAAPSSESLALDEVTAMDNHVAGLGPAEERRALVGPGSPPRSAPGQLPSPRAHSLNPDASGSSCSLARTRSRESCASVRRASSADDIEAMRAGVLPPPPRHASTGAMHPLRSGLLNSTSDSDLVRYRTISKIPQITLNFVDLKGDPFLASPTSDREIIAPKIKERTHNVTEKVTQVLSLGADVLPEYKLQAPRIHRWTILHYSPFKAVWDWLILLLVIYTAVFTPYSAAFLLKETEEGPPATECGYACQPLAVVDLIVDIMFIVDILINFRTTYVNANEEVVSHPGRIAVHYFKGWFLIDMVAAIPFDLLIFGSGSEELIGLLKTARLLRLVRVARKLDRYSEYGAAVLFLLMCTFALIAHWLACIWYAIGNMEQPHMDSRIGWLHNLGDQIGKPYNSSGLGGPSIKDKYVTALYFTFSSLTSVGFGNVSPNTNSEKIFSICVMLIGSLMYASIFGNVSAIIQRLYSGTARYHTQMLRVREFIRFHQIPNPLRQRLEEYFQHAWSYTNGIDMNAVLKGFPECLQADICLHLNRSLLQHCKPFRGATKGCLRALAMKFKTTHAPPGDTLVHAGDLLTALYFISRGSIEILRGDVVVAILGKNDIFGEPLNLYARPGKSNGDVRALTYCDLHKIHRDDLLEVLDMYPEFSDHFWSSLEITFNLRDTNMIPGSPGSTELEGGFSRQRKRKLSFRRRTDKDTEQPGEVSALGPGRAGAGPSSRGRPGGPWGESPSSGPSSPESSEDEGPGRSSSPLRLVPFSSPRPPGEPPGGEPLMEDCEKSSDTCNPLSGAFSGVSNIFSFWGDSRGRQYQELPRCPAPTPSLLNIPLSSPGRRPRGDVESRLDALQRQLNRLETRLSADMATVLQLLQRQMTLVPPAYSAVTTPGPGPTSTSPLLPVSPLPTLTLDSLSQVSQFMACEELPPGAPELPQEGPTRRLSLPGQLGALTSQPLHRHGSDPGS

[7] = Metabolic stability in liver microsomes (human); assay type: in vitro ADME
Method: Buffers A-C were prepared for use in the metabolic study. The buffers were as follows: Buffer A: 1.0 L of 0.1 M monobasic Potassium Phosphate buffer containing 1.0 mM EDTA; Buffer B: 1.0 L of 0.1 M Dibasic Potassium Phosphate buffer containing 1.0 mM EDTA; and Buffer C: 0.1 M Potassium Phosphate buffer, 1.0 mM EDTA, pH 7.4 by titrating 700 mL of buffer B with buffer A while monitoring with the pH meter.
Ketanserin was used as the reference compound. Reference compound and test compound spiking solutions (500 μM spiking solution) were prepared by adding 10 μL of 10 mM DMSO stock solution into 190 μL ACN. 1.5 μL of 500 μM spiking solution (0.75 mg/mL) and 18.75 μL of 20 mg/mL liver microsomes were added into 479.75 μL of Buffer C on ice.
A 6 mM NADPH stock solution was prepared by dissolving an appropriate amount of NADPH into buffer C. 30 μL of 1.5 μM spiking solution containing 0.75 mg/mL microsomes solution was dispensed to the assay plates designated for different time points (0-, 5-, 15-, 30-, 45-min) on ice. […] All the other plates were pre-incubated at 37° C. for 5 minutes. 15 μL of 6 mM NADPH stock solution was added to the plates to start the reaction and time. At 5-min, 15-min, 30-min, and 45-min, 135 μL of ACN containing internal standard were added to the wells of corresponding plates, respectively, to stop the reaction. […]

[8] = tested on: SD rats; assay: SD rat chronic constriction injury (CCI) model; assay type: in vivo; settings: mechanical pain threshold 1, 2, 4 h post-administration, compound 8 single subcutaneous injection
Source text: This model involves the use of a non-absorbable 5-0 suture to loosely ligate the sciatic nerve, causing slight compression of its outer sheath. Mechanical compression by the suture induces axonal damage, leading to abnormal discharge. Additionally, the local stimulation from the ligature induces the release of inflammatory mediators.
Furthermore, CCI selectively damages the larger myelinated fibers of the sciatic nerve while preserving most of the unmyelinated C fibers responsible for transmitting pain.
After initial screening, rats are sequentially numbered and randomly assigned to groups based on the numbering, using a random grouping method. Experimental groups are established based on trial conditions.

T1 sequence (P10635 whole entry): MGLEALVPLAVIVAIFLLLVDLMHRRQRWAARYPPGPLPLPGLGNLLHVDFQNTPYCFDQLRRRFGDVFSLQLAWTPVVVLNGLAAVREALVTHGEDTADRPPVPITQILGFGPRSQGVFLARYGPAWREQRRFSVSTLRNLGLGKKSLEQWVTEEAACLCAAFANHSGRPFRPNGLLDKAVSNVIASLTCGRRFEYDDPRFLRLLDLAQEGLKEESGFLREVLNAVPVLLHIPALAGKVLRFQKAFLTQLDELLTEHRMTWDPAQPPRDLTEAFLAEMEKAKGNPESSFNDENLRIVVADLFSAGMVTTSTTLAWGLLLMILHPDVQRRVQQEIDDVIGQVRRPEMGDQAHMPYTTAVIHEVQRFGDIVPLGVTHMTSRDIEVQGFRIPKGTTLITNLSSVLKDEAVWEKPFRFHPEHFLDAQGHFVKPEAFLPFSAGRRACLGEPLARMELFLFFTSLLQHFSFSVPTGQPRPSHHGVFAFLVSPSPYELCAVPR

| Structure (SMILES) | IC50 [1] | IC50 [2] | CLint scaled at 1 μM [3] | half-life at 1 μM [3] | half-life at 10 μM [4] | EC50 [5] | inhibition at 0.3 µM [6] | inhibition at 1 µM [6] | inhibition at 3 µM [6] | inhibition at 10 µM [6] | inhibition at 30 µM [6] | CLint scaled at 1 μM ([7]; pH 7.4) | half-life at 1 μM ([7]; pH 7.4, read-out: Metabolic stability T½) | Effect on neuropathic pain in CCI model [8] |
| --- | --- | --- | --- | --- | --- | --- | --- | --- | --- | --- | --- | --- | --- | --- |
| CC(C)(NC(=O)[C@H]1[C@@H]2CNC[C@H]1C2)c1ncc2c(Cl)cccn12 [Compound 7, (1R,5S,6r)-N-(2-(8-chloroimidazo[1,5-a]pyridin-3-yl)propan-2-yl)-3-azabicyclo[3.1.1]heptane-6-carboxamide] | > 10 µM | > 10 µM | 5.4 mL/min/kg | 10 h |  |  |  |  |  |  |  |  |  |  |
| CC(C)(NC(=O)[C@H]1[C@@H]2CNC[C@H]1C2)c1nc(C2CC2)c2ccccn12 [Compound 9, (1R,5S,6r)-N-(2-(1-cyclopropylimidazo[1,5-a]pyridin-3-yl)propan-2-yl)-3-azabicyclo[3.1.1]heptane-6-carboxamide] | > 10 µM | > 10 µM |  |  |  |  |  |  |  |  |  |  |  |  |
| CC(C)(NC(=O)[C@H]1[C@@H]2CNC[C@H]1C2)c1ncc2c(Br)cccn12 [Compound 8, (1R,5S,6r)-N-(2-(8-bromoimidazo[1,5-a]pyridin-3-yl)propan-2-yl)-3-azabicyclo[3.1.1]heptane-6-carboxamide] | > 10 µM | > 10 µM | 6.01 mL/min/kg | 9 h | 81.3 h | 0.00333 µM | -3.49% | -3.67% | -2.44% | -1.66% | -0.15% | 29.5 mL/min/kg | 1.4 h | significantly affected the SD rat CCI model |
